The values below come from patent US20150231067A1, “METHOD AND COMPOSITION FOR TREATING HYPERGLYCEMIA” (MannKind Corporation, priority 2012, published 2015).

For one data set, the system named is male ZDF rats. Description: Food consumption after oxyntomodulin/FDKP powder. In kind it is in vivo, rat. As to conditions: 0.15-0.9 mg oxyntomodulin as 30% powder, rats fasted 24 hr.
For data set [1], the system named is healthy adult male subjects. Description: Phase 1a trial of GLP-1/FDKP inhalation powder: insulin, glucose and glucagon response. The class given is in vivo, human. Particulars: 1.5 mg GLP-1; two of the six subjects; value that defines hypoglycemia. The text has this: Dropouts were not replaced. These dosages assumed a body mass of 70 kg.
Data set [2] relates to healthy adult male subjects.
Method: Additional pulmonary safety and pharmacokinetic parameters were also evaluated. Pulmonary safety as expressed by the incidence of pulmonary and other adverse events and changes in pulmonary function between Visit 1 (Screening) and Visit 3 (Follow-up) was studied. […] Clinical trial endpoints were based on a comparison of the following pharmacological and safety parameters determined in the trial subject population. Primary endpoints included the incidence and severity of reported AEs, including cough and dyspnea, nausea and/or vomiting, as well as changes from screening in vital signs, clinical laboratory tests and physical examinations.
The conditions of data set [3]: literature evaluation; cited from earlier work.
For data set [4] the following is noted: Deacon et al., cited from earlier work.

Method for male ZDF rats: Male ZDF rats (10/group) were assigned to one of four groups.
Rats were allowed to eat after receiving the experimental dose. A predetermined amount of food was given to the rats and the amount of food the rats consumed was measured at various times after the start of the experiment.

For oxyntomodulin, the “duration of significantly less food consumed than control rats” value in the data set on male ZDF rats is “up to 6 hr”.

For `CC[C@H](C)[C@H](NC(=O)[C@H](Cc1ccccc1)NC(=O)[C@H](CCC(=O)O)NC(=O)[C@H](CCCCN)NC(=O)[C@H](C)NC(=O)[C@H](C)NC(=O)[C@H](CCC(N)=O)NC(=O)CNC(=O)[C@H](CCC(=O)O)NC(=O)[C@H](CC(C)C)NC(=O)[C@H](Cc1ccc(O)cc1)NC(=O)[C@H](CO)NC(=O)[C@H](CO)NC(=O)[C@@H](NC(=O)[C@H](CC(=O)O)NC(=O)[C@H](CO)NC(=O)[C@@H](NC(=O)[C@H](Cc1ccccc1)NC(=O)[C@@H](NC(=O)CNC(=O)[C@H](CCC(=O)O)NC(=O)[C@H](C)NC(=O)[C@@H](N)Cc1c[nH]cn1)[C@@H](C)O)[C@@H](C)O)C(C)C)C(=O)N[C@@H](C)C(=O)N[C@@H](Cc1c[nH]c2ccccc12)C(=O)N[C@@H](CC(C)C)C(=O)N[C@H](C(=O)N[C@@H](CCCCN)C(=O)NCC(=O)N[C@@H](CCCNC(=N)N)C(N)=O)C(C)C` [GLP-1, GLP-1(7-36)amide], the “glucose concentration lowered by GLP-1” value in data set [1] is reported as “below 3.5 mmol/L”. For the setting “after inhalation of GLP-1/FDKP powder”, the “time for plasma active GLP-1 to fall to the physiological range” value is ≤ 9 min. Further, the “metabolite peaks, intravenous compared to pulmonary administration” value (at comparable active concentrations) is recorded as 8-9 fold greater. The “subjects reporting symptoms of nausea, profuse sweating or vomiting” value in data set [2] (all doses, pulmonary) was “None of the subjects”. Besides, the “inhibition of gastric emptying” value in data set [2] (pulmonary dry powder, data not shown) is “lack inhibition of gastric emptying”. Besides, the “active GLP-1 concentration in blood plasma above which profuse sweating, nausea and vomiting are typically observed” value in data set [3] was “exceed 100 pmol/L”. Further, the “degradation in the liver” value in data set [4] is 45%. Moreover, in data set [4] (intravenous, pigs), the “GLP-1 instantaneously metabolized in the vein” value is 40%, the “GLP-1 metabolized in the deoxygenated blood in the lung” value is reported as 10% and the “extraction by the portal bed” value was 20%.
